From patent US9708336B2, “Metallo-beta-lactamase inhibitors” (priority 2014, dated 2017)
Read-outs that look alike come from different tables or passages of the source.

Tests used:
[1] = biological target: NDM-1 (Klebsiella pneumoniae, UniProt C7C422); assay: biochemical; assay type: biochemical; conditions: fluorescence assay with CCF2-FA substrate; read-out: NDM-1 IC50
[2] = biological target: IMP-1 (Serratia marcescens, UniProt P52699); assay: biochemical; assay type: biochemical; conditions: fluorescence assay with CCF2-FA substrate; read-out: IMP-1 IC50
[3] = biological target: VIM-1 (Pseudomonas aeruginosa (strain ATCC 15692 / DSM 22644 / CIP 104116 / JCM 14847 / LMG 12228 / 1C / PRS 101 / PAO1), UniProt A0A0F7KYQ8); assay: Enzyme activity: determination of IC50, fluorescence assay with CCF2-FA substrate (VIM-1); assay type: biochemical
[4] = tested on: Escherichia coli expressing NDM-1 (CLB30005); assay: Antibiotic potentiation activity: synergistic concentration (MITC95) with imipenem, OD600 growth; assay type: cell-based; conditions: concentration giving 95% inhibition of bacterial growth
Method in brief: (§1)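 CLB30005 was precultured on Mueller Hinton agar with 8 ug/ml imipenem, the other strains on trypticase soy agar with 5% sheep blood, overnight at 35 °C. Saline suspensions diluted 1:100 in 1.1× CAMHB received compound and 4 μg/ml imipenem, then 22–24 h at 35 °C before absorbance reading.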

[5] = tested on: Klebsiella pneumoniae expressing VIM-1 (IHMA599644); assay: as above; assay type: cell-based; conditions: concentration giving 95% inhibition of bacterial growth
Method in brief: as §1

[6] = tested on: Serratia marcescens expressing IMP-1 (CL5741); assay: as above; assay type: cell-based; conditions: concentration giving 95% inhibition of bacterial growth
Method in brief: as §1

[7] = fluorescence assay with CCF2-FA substrate, read-out: VIM-1 IC50

Chain of IMP-1 (P52699 whole entry, looked up): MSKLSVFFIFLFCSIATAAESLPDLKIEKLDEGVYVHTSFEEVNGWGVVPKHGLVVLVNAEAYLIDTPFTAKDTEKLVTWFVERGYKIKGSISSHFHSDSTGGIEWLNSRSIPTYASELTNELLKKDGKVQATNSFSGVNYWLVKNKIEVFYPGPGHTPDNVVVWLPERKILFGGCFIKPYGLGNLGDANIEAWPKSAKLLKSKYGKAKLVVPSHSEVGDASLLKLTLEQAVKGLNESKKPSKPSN
Chain of NDM-1 (C7C422 whole entry, looked up, species assumed): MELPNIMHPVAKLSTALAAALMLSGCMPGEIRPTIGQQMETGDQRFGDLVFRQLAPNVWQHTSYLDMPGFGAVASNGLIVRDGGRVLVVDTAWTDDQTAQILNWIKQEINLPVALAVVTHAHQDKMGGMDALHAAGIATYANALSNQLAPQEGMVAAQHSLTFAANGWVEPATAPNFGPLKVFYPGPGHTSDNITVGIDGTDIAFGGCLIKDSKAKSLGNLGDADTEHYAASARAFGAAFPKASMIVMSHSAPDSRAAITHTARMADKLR

Compound: CS(=O)(=O)CCn1cc(-c2cccc(S(N)(=O)=O)c2-c2nn[nH]n2)cn1 [Example 54, 3-{1-[2-(methylsulfonyl)ethyl]-1H-pyrazol-4-yl}-2-(2H-tetrazol-5-yl)benzenesulfonamide]
- IC50 [1]: 0.0423 µM
- IC50 [2]: 0.205 µM
- IC50 [3, 7]: 0.937 µM
- Escherichia coli expressing NDM-1 (CLB 30005) MITC95 [4]: 2.344 µM
- Klebsiella pneumoniae expressing VIM-1 (IHMA 599644) MITC95 [5]: >200 µM
- Serratia marcescens expressing IMP-1 (CL5741) MITC95 [6]: 18.75 µM

Compound: CN(c1ncc(-c2cccc(S(N)(=O)=O)c2-c2nn[nH]n2)cn1)S(C)(=O)=O [Example 55, 3-{2-[methyl(methylsulfonyl)amino]pyrimidin-5-yl}-2-(2H-tetrazol-5-yl)benzenesulfonamide]
- IC50 [1]: 0.00348 µM
- IC50 [2]: 0.0527 µM
- IC50 [3, 7]: 0.144 µM
- Escherichia coli expressing NDM-1 (CLB 30005) MITC95 [4]: 1.953 µM
- Klebsiella pneumoniae expressing VIM-1 (IHMA 599644) MITC95 [5]: 200 µM
- Serratia marcescens expressing IMP-1 (CL5741) MITC95 [6]: 12.5 µM

Compound: NS(=O)(=O)c1cccc(-c2ccc3c(c2)OCCO3)c1-c1nn[nH]n1 [Example 56, 3-(2,3-dihydro-1,4-benzodioxin-6-yl)-2-(2H-tetrazol-5-yl)benzenesulfonamide]
- IC50 [1]: 0.00183 µM
- IC50 [2]: 0.0132 µM
- IC50 [3, 7]: 0.044 µM
- Escherichia coli expressing NDM-1 (CLB 30005) MITC95 [4]: 2.344 µM
- Klebsiella pneumoniae expressing VIM-1 (IHMA 599644) MITC95 [5]: 200 µM
- Serratia marcescens expressing IMP-1 (CL5741) MITC95 [6]: 14.06 µM

Compound: CNS(=O)(=O)c1ccc(-c2cccc(S(N)(=O)=O)c2-c2nn[nH]n2)cc1 [Example 57, N~4~-′-methyl-2-(2H-tetrazol-5-yl)biphenyl-3,4′-disulfonamide]
- IC50 [1]: 0.00419 µM
- IC50 [2]: 0.0289 µM
- IC50 [3, 7]: 0.0297 µM
- Escherichia coli expressing NDM-1 (CLB 30005) MITC95 [4]: 1.563 µM
- Klebsiella pneumoniae expressing VIM-1 (IHMA 599644) MITC95 [5]: 25 µM
- Serratia marcescens expressing IMP-1 (CL5741) MITC95 [6]: 4.688 µM

Compound: CS(=O)(=O)c1ccc(-c2cccc(S(N)(=O)=O)c2-c2nn[nH]n2)cn1 [Example 58, 3-[6-(methylsulfonyl)pyridin-3-yl]-2-(2H-tetrazol-5-yl)benzenesulfonamide]
- IC50 [1]: 0.0145 µM
- IC50 [2]: 0.227 µM
- IC50 [3, 7]: 0.19 µM
- Escherichia coli expressing NDM-1 (CLB 30005) MITC95 [4]: 0.5859 µM
- Klebsiella pneumoniae expressing VIM-1 (IHMA 599644) MITC95 [5]: 100 µM
- Serratia marcescens expressing IMP-1 (CL5741) MITC95 [6]: 12.5 µM

Compound: CN(C)S(=O)(=O)c1ccc(-c2cccc(S(N)(=O)=O)c2-c2nn[nH]n2)cc1 [Example 59, N~4~′,N~4~′-dimethyl-2-(2H-tetrazol-5-yl)biphenyl-3,4′-disulfonamide]
- IC50 [1]: 0.00438 µM
- IC50 [2]: 0.0361 µM
- IC50 [3, 7]: 0.095 µM
- Escherichia coli expressing NDM-1 (CLB 30005) MITC95 [4]: 2.344 µM
- Klebsiella pneumoniae expressing VIM-1 (IHMA 599644) MITC95 [5]: 200 µM
- Serratia marcescens expressing IMP-1 (CL5741) MITC95 [6]: 6.25 µM

Compound: NS(=O)(=O)c1cccc(-c2ccc(S(=O)(=O)NC3CC3)cc2)c1-c1nn[nH]n1 [Example 60, N~4~′-cyclopropyl-2-(2H-tetrazol-5-yl)biphenyl-3,4′-disulfonamide]
- IC50 [1]: 0.00317 µM
- IC50 [2]: 0.0165 µM
- IC50 [3, 7]: 0.0278 µM
- Escherichia coli expressing NDM-1 (CLB 30005) MITC95 [4]: 3.906 µM
- Klebsiella pneumoniae expressing VIM-1 (IHMA 599644) MITC95 [5]: 75 µM
- Serratia marcescens expressing IMP-1 (CL5741) MITC95 [6]: 4.688 µM

Compound: NS(=O)(=O)c1ccc(-c2cccc(S(N)(=O)=O)c2-c2nn[nH]n2)cc1 [Example 61, 2-(2H-tetrazol-5-yl)biphenyl-3,4′-disulfonamide]
- IC50 [1]: 0.00634 µM
- IC50 [2]: 0.058 µM
- IC50 ([3]; VIM-1 IC50, fluorescence assay with CCF2-FA substrate): 0.062 µM
- Escherichia coli expressing NDM-1 (CLB 30005) MITC95 [4]: 0.5859 µM
- Klebsiella pneumoniae expressing VIM-1 (IHMA 599644) MITC95 [5]: 25 µM
- Serratia marcescens expressing IMP-1 (CL5741) MITC95 [6]: 6.25 µM

Compound: NS(=O)(=O)c1cccc(C2=CCSCC2)c1-c1nn[nH]n1 [Example 62, 3-(3,6-dihydro-2H-thiopyran-4-yl)-2-(2H-tetrazol-5-yl)benzenesulfonamide]
- IC50 [1]: 0.00847 µM
- IC50 [2]: 0.211 µM
- IC50 [3, 7]: 0.186 µM
- Escherichia coli expressing NDM-1 (CLB 30005) MITC95 [4]: 1.563 µM
- Klebsiella pneumoniae expressing VIM-1 (IHMA 599644) MITC95 [5]: 100 µM
- Serratia marcescens expressing IMP-1 (CL5741) MITC95 [6]: 100 µM

Compound: NS(=O)(=O)c1cccc(C2=CCCOC2)c1-c1nn[nH]n1 [Example 63, 3-(5,6-dihydro-2H-pyran-3-yl)-2-(2H-tetrazol-5-yl)benzenesulfonamide]
- IC50 [1]: 0.0489 µM
- IC50 [2]: 1.56 µM
- IC50 [3, 7]: 1.32 µM
- Escherichia coli expressing NDM-1 (CLB 30005) MITC95 [4]: 0.7813 µM
- Klebsiella pneumoniae expressing VIM-1 (IHMA 599644) MITC95 [5]: 100 µM
- Serratia marcescens expressing IMP-1 (CL5741) MITC95 [6]: 50 µM
